Experimental data published in US4658013A, “Analgesic and/or opiate antagonist tripeptide amides and processes for preparation and compositions thereof” (Sterling Drug Inc., priority 1983, dated 1987).
Non-standard residues stand in square brackets, D forms with d. No end group written: not given here.

Assays:
[1] = test system: guinea pig ileum longitudinal muscle with adhering myenteric plexus; experiment: Guinea pig ileum test (inhibition of electrically induced twitch of longitudinal muscle strips); assay type: cell-based; conditions: ratio of IC50 of reference Met^5-enkephalin to IC50 of test compound in the same preparation, averaged (N=4); reference given as 100
Experimental: Adult male guinea pigs (Charles River, Hartley strain) weighing 300-500 g. are decapitated, and the terminal ileum is exposed by reflecting the overlying cecum, severed at the ileocecal juncture, and removed while cutting the mesenteric attachments to avoid excessive traction on the tissue. The ileum (about 30 cm. in length) is transferred to a beaker containing warm modified Krebs-Henseleit solution (118 mM sodium chloride, 4.75 mM potassium chloride, 2.54 mM calcium chloride, 1.19 mM potassium dihydrogen phosphate, 1.2 mM magnesium sulfate, 25 mM sodium bicarbonate, 11 mM glucose, 20 μM choline chloride and 0.125 μM pyrilamine maleate). The terminal (aboral) portion (about 10 cm, in length) is discarded, and segments (3-4 cm. in length) are cut from the remainder and gently slid onto a glass rod (5-6 mm. in diameter) and arranged so that the mesenteric attachment is in a straight line. A cotton swab moistened in the solution is then carefully used to separate the longitudinal muscle from the underlying circular muscle. The longitudinal muscle and adhering myenteric plexus is then gently removed from the remaining tissue with forceps.
Strips of thus prepared longitudinal muscle are mounted in a double-jacketed organ bath (5 ml.) under tension (1.0 g.), connected to isometric transducers (Grass FT 0.03), bathed in the modified Krebs-Henseleit solution described above, aerated with oxygen-carbon dioxide (95:5) and maintained at 37° C.
Stimulators (Grass S-44) are set to deliver repetitive, monophasic square wave field stimulation (supramaximal voltage, 0.10 Hz., 0.25 msec. duration) through platinum ring electrodes at the top and bottom of the bath. Regular contractions of the muscle, which result from electrically-induced liberation of acetylcholine from postganglionic parasympathetic nerves, are recorded on a polygraph (Grass model 5). Following tissue equilibration (45-60 min.) and repeated washing (every 10 min.) an aqueous solution of a reference or test compound is added to the bath in a microliter volume (1.25-250 μl) and reductions in muscle twitch height are recorded. More compound can be added […] first washing the preparation.
From the results a half-maximal inhibitory concentration (IC50) value for the compound is computed by regression analysis of a linear plot of logarithm of concentration against percent of inhibition of twitch height (probits). The ratio of the IC50 value of a reference compound to that of a test compound tested in the same preparation is the molar potency ratio. At least four preparations are tested simultaneously (N=4), and the resulting molar potency ratios are averaged.
The following results were obtained using the examples as test compounds and Met^5 -enkephalin as the reference compound: […]

[2] = test system: guinea pig ileum longitudinal muscle with adhering myenteric plexus; conditions: Vavrek et al., Abstract P-76, 1981; cited from earlier work

Molecule: CC(C)CCNC(=O)[C@H](Cc1ccccc1)NC(=O)[C@@H](C)NC(=O)[C@@H](N)Cc1ccc(O)cc1 [Example 1, L-tyrosyl-D-alanyl-N-(3-methylbutyl)-L-phenylalaninamide]
- Average Molar Potency Ratio [1]: 25

Molecule: CC(C)CCN(CCc1ccccc1)C(=O)[C@H](Cc1ccccc1)NC(=O)[C@@H](C)NC(=O)[C@@H](N)Cc1ccc(O)cc1 [Example 2, L-tyrosyl-D-alanyl-N-(3-methylbutyl)-N-(2-phenylethyl)-L-phenylalaninamide]
- Average Molar Potency Ratio [1]: 6

Molecule: CC(C)CCNC(=O)[C@H](Cc1ccccc1)NC(=O)[C@@H](CN(C)C)NC(=O)[C@@H](N)Cc1ccc(O)cc1 [Example 3, L-tyrosyl-3-(dimethylamino)-D-alanyl-N-(3-methylbutyl)-L-phenylalaninamide]
- Average Molar Potency Ratio [1]: 5

Molecule: D,L-N-(3-methylbutyl)-2-[(L-tryosyl-D-alanyl)amino]benzenepentanamide [Example 7]
- Average Molar Potency Ratio [1]: 5

Molecule: Met^5 -enkephalin [reference compound]
- Average Molar Potency Ratio [1]: 100

Molecule: Tyr-[dA]-Phe-NH2
- activity as % of Met-enkephalin on the stimulated guinea pig ileum [2]: 25%
